{"source": "paper PMC4794788", "about": "“Cell‐free synthesis of isotopically labelled peptide ligands for the functional characterization of G protein‐coupled receptors” (FEBS Open Bio, 2015)", "molecules": {"B1": {"name": "C5a^CF: cell‐free‐synthesized complement 5a containing the N‐terminal 6xHis tag and TEV cleavage site (protein, UniProt P01031 678-751, looked up)", "C5a anaphylatoxin": "TLQKKIEEIAAKYKHSVVKKCCYDGACVNNDETCEQRAARISLGPRCIKAFTECCVVASQLRANISHKDMQLGR", "modifications": "C5a anaphylatoxin N-terminal 6xHis tag and TEV site", "notes": "cell‐free‐synthesized complement 5a containing the N‐terminal 6xHis tag and TEV cleavage site"}, "B2": {"name": "^125I‐C5a: commercially available ^125I‐C5a (protein, UniProt P01031 678-751, looked up)", "C5a anaphylatoxin": "B1 C5a anaphylatoxin", "modifications": "C5a anaphylatoxin 125I-labelled", "notes": "commercially available ^125I‐C5a"}}, "key": {"[1]": {"test": "Solubility/precipitation of cell‐free translated peptide in the reaction mix", "type": "physicochemical", "details": "soluble vs pellet fraction", "description": "Complement 5a is flanked by an N‐terminal 6x His tag followed by a tobacco etch virus (TEV) cleavage site. […] Expression of both constructs is controlled by a T7 promoter. Cell‐free synthesis was accomplished using a homemade S30 extract from E. coli 6. The extract was prepared from the E. coli A19 strain, described in detail in 6. The T7 RNA polymerase was produced and purified as published 50. Cell‐free reactions were executed in continuous exchange mode by using different sizes of D‐Tube™ dialyzers (Merck Millipore) (mini for reactions containing labelled amino acids and maxi for reactions with unlabeled amino acids) and a 1 : 17 ratio between reaction (RM) and feeding mix (FM). Mini D‐tube™ dialyzers were placed into 2 mL tubes filled with feeding mix, maxi dialyzers into 50 mL tubes, respectively. […] Reactions were incubated at 30 °C, 100 rpm in an Infors Multitron shaker incubator (Infors, Bottmingen, Switzerland) overnight. Cell‐free reactions were analysed by SDS/PAGE using 10% Bis/Tris Novex NuPAGE gels (Life Technologies)."}, "[2]": {"target": "endothelin receptors (Table 1: compared with ETBR)", "details": "determined with ^125I‐ET‐1 on receptors from native human tissues; literature comparison; cited from earlier work"}, "[3]": {"target": "T1, human complement 5a receptor (C5aR) (Homo sapiens, UniProt P21730)", "T1 construct": "10x His (N); FLAG (N); StrepII (C); made in house; host or cells: Sf9 insect cells (recombinant baculovirus, pOET5 / flashBAC); membrane preparation", "T1 sequence (P21730 1-350)": "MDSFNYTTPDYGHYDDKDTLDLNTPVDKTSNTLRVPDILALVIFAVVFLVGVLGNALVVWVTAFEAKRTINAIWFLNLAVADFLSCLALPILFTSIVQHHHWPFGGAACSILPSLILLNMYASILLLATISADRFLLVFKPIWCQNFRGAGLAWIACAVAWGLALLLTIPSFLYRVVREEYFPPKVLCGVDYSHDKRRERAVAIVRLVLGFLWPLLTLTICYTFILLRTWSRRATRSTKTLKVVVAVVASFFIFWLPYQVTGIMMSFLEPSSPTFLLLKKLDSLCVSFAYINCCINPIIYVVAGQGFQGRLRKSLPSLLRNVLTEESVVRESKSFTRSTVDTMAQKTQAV", "test": "Competition binding against [^3H]‐C5a^CF at C5aR in Sf9 membranes", "details": "read-out: KI (inhibition constant)", "source_text": "The complement 5a receptor was coproduced with Gαi2 in Sf9 insect cells. The cDNA encoding the human complement 5a receptor flanked by an N‐terminal 10x His and FLAG tag and a C‐terminal StrepII tag was cloned into the pOET5 transfer vector (Oxford Expression Technologies, Oxford, UK). pOET5 contains two expression cassettes, the receptor is expressed under the control of a polyhedron promoter; Gαi2 expression is regulated by a p10 promoter. Recombinant baculoviruses were generated with the flashBAC protein expression system (Oxford Expression Technologies) according to manufacturer's instructions. […] Total membrane protein content was determined by the bicinchoninic acid (BCA) method using bovine serum albumin as the standard.\nFor the determination of binding parameters, membranes containing the respective receptors (10–50 μg total membrane protein) were incubated with cell‐free synthesized tritium‐labelled ligands in varying concentrations. Binding was terminated by rapid filtration over glass fibre filters pretreated with 0.3% polyethyleneimine using a Brandel harvester (Brandel, Alpha Biotech Ltd, Killearn, UK) and analysed by liquid scintillation counting. […]\nData are represented as means ± SEM from three or two independent experiments performed in triplicate and analysed in […] […]"}, "C5aR [4]": {"test_system": "C5aR", "details": "literature comparison; cited from earlier work", "source_text": "Table 1 Binding parameters of cell‐free synthesized radioligands | column: Literature IC50 [nM]"}, "C5aR [5]": {"target": "C5aR", "details": "C5aR in native human tissues; literature comparison; cited from earlier work", "description": "Table 1 Binding parameters of cell‐free synthesized radioligands | column: Literature KD [nM] || As the interaction between C5a and its receptor is mainly mediated by the disulphide bridged core region of C5a (residues 21–55, 22) and the C‐terminal region (especially Arg^74 30) the N‐terminal hexa‐histidine tag was not removed. The cell‐free synthesized ligand binds to the complement 5a receptor with a dissociation constant of 1.18 ± 0.27 nM (Fig. 4A), which corresponds to values determined by Gerard and Gerard for C5aR in native human tissues (1 nM 31, Table 1). Competition experiments with the unlabelled small molecule inverse agonist NDT 9513727 and the peptide antagonist H2N‐ChaW resu ..."}, "[6]": {"details": "with DsbA and reduced glutathione (GSH) replacing DTT"}}, "note": "Values joined by “and” are separate entries in the source; they are usually repeats but may differ in a detail not shown here. Equal entries are not always repeated. “Also recorded” adds a separate entry of the source."}
{"molecule": "CC[C@H](C)[C@H](NC(=O)[C@H](CC(=O)O)NC(=O)[C@H](CC(C)C)NC(=O)[C@H](Cc1cnc[nH]1)NC(=O)[C@@H]1CSSC[C@H](N)C(=O)N[C@@H](CO)C(=O)N[C@H]2CSSC[C@H](NC(=O)[C@H](CCC(=O)O)NC(=O)[C@H](CCCCN)NC(=O)[C@H](CC(=O)O)NC(=O)[C@H](CCSC)NC(=O)[C@H](CC(C)C)NC(=O)[C@H](CO)NC(=O)[C@H](CO)NC2=O)C(=O)N[C@@H](C(C)C)C(=O)N[C@@H](Cc2ccc(O)cc2)C(=O)N[C@@H](Cc2ccccc2)C(=O)N1)C(=O)N[C@H](C(=O)N[C@@H](Cc1c[nH]c2ccccc12)C(=O)O)[C@@H](C)CC", "note": "[Endothelin‐1, reference compound]", "values": [{"measurement": "Solubility/precipitation of cell‐free product", "setting": "[1]; reducing conditions (DTT), without DsbA, listed as ET‐1", "value": "strong precipitation; also recorded: heavy precipitation"}, {"measurement": "Solubility/precipitation of cell‐free product", "setting": "[1]; [6]", "value": "did not display any precipitates"}]}
{"molecule": "^125I‐ET‐1: ^125I‐labelled endothelin‐1", "values": [{"measurement": "Kd", "setting": "[2]", "value": 0.00033, "unit": "µM"}]}
{"molecule": "CCCCn1c(-c2ccccc2)nc(-c2ccccc2)c1CN(Cc1ccc2c(c1)OCO2)Cc1ccc2c(c1)OCO2", "note": "[NDT 9513727, N,N‐Bis(1,3‐benzodioxol‐5‐ylmethyl)‐1‐butyl‐2,4‐diphenyl‐1H‐imidazole‐5‐methanamine]", "values": [{"measurement": "Ki", "setting": "[3]", "value": "0.169 µM and 0.0545 µM"}, {"measurement": "IC50", "setting": "C5aR [4]", "value": "0.0116 ± 0.001", "unit": "µM"}]}
{"molecule": "B1", "values": [{"measurement": "Solubility/precipitation of cell‐free product", "setting": "[1]; reducing conditions (DTT), without DsbA", "value": "strong precipitation; also recorded: insoluble and can only be detected in the pellet fraction; also recorded: heavy precipitation"}, {"measurement": "Solubility/precipitation of cell‐free product", "setting": "[1]; [6]", "value": "did not display any precipitates; also recorded: can be detected in the soluble fraction"}]}
{"molecule": "B2", "values": [{"measurement": "Kd", "setting": "C5aR [5]", "value": 0.001, "unit": "µM"}]}
